# From patent US20090214654A1, “TREATMENT OF ANEURYSM WITH APPLICATION OF CONNECTIVE TISSUE STABILIZATION AGENT IN COMBINATION WITH A DELIVERY VEHICLE” (priority 2008, published 2009)
# Like-named read-outs stand apart in the source and are kept apart here.
# How the values were obtained:
# [1] = tested on: porcine carotid arteries; experiment: In vitro elastase digestion of treated carotid arteries; conditions: treated 20 minutes; 0.6% (w/v) Glut, 0.15% (w/v) PGG, alone or as cocktail; elastase 24 hrs, 37°C
# Experimental: Tissue resistance to elastase degradation after treatment with various reagents is studied. Specifically, porcine carotid arteries were treated with saline (control, for 20 minutes), Glutaraldehyde (Glut) (for 20 minutes), PGG (for 20 minutes), or a combination of the two (Glut+PGG for 20 minutes, or Glut for 10 minutes followed by a separate incubation with PGG for 10 minutes). Concentrations of the reagents used were 0.6% (w/v) for Glut, 0.15% (w/v) for PGG and 9 g/L for physiological saline.
# The treated tissue was then exposed to an in vitro elastase digestion assay to subject the treated tissue to digestion for 24 hrs. All experiments were conducted at 37° C. Because the values shown are percentage of digestion, the lower the value, the better the reagent used preformed in resisting elastase degradation. […] It should be noted that the digestion model used in this experiment is a very accelerated and aggressive digestion model.
# [2] = tested on: porcine aortic wall; experiment: Collagenase digestion of treated aortic wall; conditions: type I collagenase 150 U/mL, 37°C, 24 hours
# Experimental: Tissue resistance to collagenase degradation after treatment with various reagents is discussed. Specifically, samples of porcine aortic wall were either left untreated (fresh) or treated with Glut alone or Glut followed by tannic acid (TA). Glut treatment was performed with 0.6% (w/v) Glut for 1 day, and then 0.2% (w/v) Glut for 7 days at room temperature; Glut/TA treatment was performed with 0.6% (w/v) Glut for 1 day, and then 0.2% (w/v) Glut for 7 days at room temperature followed by 0.15% (w/v) TA for 4 days at 37° C. The treated samples were rinsed 3 times (1 hour each) in 100 mL water, and lyophilized to record dry weight. Samples with the amount of 15 to 25 mg dry weight were immersed in 1.2 mL of type I collagenase (150 U/mL) dissolved in 50 mM Tris buffer, 10 mM CaCl2, pH 7.4, and incubated at 37° C. with orbital shaking at 650 rpm for 24 hours. Following this exposure to collagenase, samples were centrifuged (10000 rpm, 10 minutes, 4° C.), individually rinsed three times in 1 mL water, lyophilized to obtain dry weight after collagenase, and the percent of digested tissue was calculated.
# [3] = tested on: abdominal aortic aneurysms in rats; format: in vivo, rat; conditions: for external aortic diameter: PGG group
# Experimental: Pelivascular application of calcium chloride (CaCl2) to the infrarenal abdominal aorta of rodents is an accepted rat aneurysm model. It involves exposure of the abdominal aorta through a midline incision, using gauze to apply CaCl2 solution directly onto the aorta for 15 minutes, followed by surgical closure. Using this aneurysm model, we evaluated the effect of a single PGG application on development of abdominal aortic aneurysms in rats. For this study, we exposed the abdominal aorta in adult rats (n=12), measured the aorta diameter using digital photography and applied a 0.03% PGG solution in saline for 15 minutes using soaked gauze. After rinsing in saline, we induced aortic injury with the 15-minute application of 0.5 mol/L CaCl2 solution. Control rats (n=12) were treated with saline for 15 minutes, rinsed and then treated with 0.5 mol/L CaCl2 solution for 15 minutes. After 28 days, we re-exposed the abdominal aorta under general anesthesia, measured the external diameter, then euthanized the rats and collected the aorta for analysis. […] Along with aortic dilatation, perivascular application of CaCl2 induced major changes in vascular elastin content and integrity as shown by analysis of desmosine, an amino acid which is specific to elastin, as well as histology, all shown in FIG. 12.
# [4] = tested on: aneurysmal aortas of rats; experiment: CaCl2 abdominal aortic aneurysm progression model, PGG applied to aneurysmal aorta at day 28; format: in vivo, rat; conditions: PGG group, 11 of 11
# Experimental: Using the same perivascular CaCl2 aortic injury model described earlier, the ability of PGG to halt the progression of growing aneurysms was evaluated. By applying PGG to healthy abdominal aorta immediately before the CaCl2-based aneurysm induction, the previously mentioned in vivo experiment essentially evaluated the effect of PGG on aneurysm formation. However, in order to create a more clinically relevant scenario, PGG was also applied to abdominal aortas of rats which were aneurysmal to investigate PGG's ability to hinder or halt aneurysm progression. In order to do this, rat aortas were treated with calcium chloride, the animals were closed, and AAA was allowed to develop for 28 days. At this time point, the aneurysmal aortas were exposed by a second surgery, and PGG was applied perivascularly using gauze. As a control, saline was applied by the same means to the remaining aneurysmal aortas. AAA progression was followed for another 28 days in both groups. A progressive diameter increase, reaching a mean 47.1±11% increase at 56 days, was measured in the control group (n=11) and the results were illustrated in FIG. 13.
# [5] = tested on: fresh aorta; experiment: Resistance of treated fresh aorta to elastase digestion; conditions: 0.3% TA or 0.15% PGG (equimolar); accelerated digestion
# Experimental: Resistance to elastase digestion was tested using fresh, untreated aorta and aorta treated with 0.3% TA or 0.15% PGG (equimolar concentrations). […] The differences between digestive values in TA and PGG samples were not significant (p>0.05). This is an accelerated digestion study, where high concentrations of enzyme were used. Such high enzyme activities are not expected to occur in vivo.
# [6] = tested on: pure elastin strips obtained from porcine aorta; experiment: Tannic acid binding to pure aortic elastin (Folin-Denis method); conditions: incubation up to 24 hours
# Experimental: In order to determine kinetics of tannin binding to elastin, pure elastin strips obtained from porcine aorta were incubated with tannic acid (TA) for up to 24 hours. The concentration of TA in solution was assayed with the Folin-Denis method. […] All data points between 0-6 hrs are statistically different with p<0.05. The bottom diagram of FIG. 6 is a representative schematic diagram of interactions between TA and elastin. The hydrophobic domains (2, black segments) are areas in the elastin molecule that are susceptible to elastase cleavage. TA and PGG molecules (4, round structures), with an affinity for these hydrophobic areas, likely bind to these regions within elastin molecules, and establish multiple hydrogen bonds (5, dashed lines) between their hydroxyl moieties and regions of neighboring elastin molecules, resulting in improved elastin stabilization. Desmosine crosslinks (3, X) within the hydrophilic regions (1) of elastin molecules.
# [7] = tested on: pure elastin obtained from porcine aorta; experiment: Elastase digestion of TA-treated pure aortic elastin (mass loss, histology); format: biochemical
# Experimental: To investigate the potential of tannins as elastin stabilizing reagents, pure elastin obtained from porcine aorta was treated with tannic acid (TA) and the resistance of the treated porcine aorta to elastase was tested. Porcine aorta was chosen because large quantities of fresh tissue were easily obtainable. […] Purified elastin from porcine aorta was obtained using sodium hydroxide treatment followed by collagenase digestion. The smooth muscle cells, collagen and ground matrix are absent from purified aortic elastin. […] Elastase completely digested pure elastin strips, while addition of a 0.3% TA pretreatment step increased stability towards enzymatic digestion by almost 50%, as evaluated by mass loss shown in the graph at the left of FIG. 7 (p<0.05, n=6). Gravimetric data were further confirmed by histology and shown in FIG. 7A-D. Since histological analysis of elastase-digested elastin control was not possible at 48 hours due to complete (˜100%) degradation, we exposed pure elastin to elastase for only 1.5 hours, an interval which yields about 50% digestion and mass loss.
structure (smiles),measurement,setting,value
"O=CCCCC=O [Glut, Glutaraldehyde]",resistance of tissue to elastase degradation (percentage digestion) vs saline,[1],slightly improved
same,percentage of sample digested by collagenase (mass loss),[2],over 20%
"O=C(OC[C@H]1O[C@@H](OC(=O)c2cc(O)c(O)c(O)c2)[C@H](OC(=O)c2cc(O)c(O)c(O)c2)[C@@H](OC(=O)c2cc(O)c(O)c(O)c2)[C@@H]1OC(=O)c1cc(O)c(O)c(O)c1)c1cc(O)c(O)c(O)c1 [PGG, penta-galloylglucose]",increase in aortic diameter after 28 days,"[3]; 0.03% PGG in saline 15 minutes by soaked gauze before 0.5 mol/L CaCl2, day 28 vs day 0",8±7%
same,loss of desmosine (elastin content) vs non-surgery control aorta,[3]; 28 days after injury,less than 15%
same,external aortic diameter,[3]; 28 days,1.676±0.097 mm
same,external aortic diameter,[3]; day 0,1.564±0.064 mm
same,time for which in vivo binding of PGG to aortic tissue is relatively stable,"[3]; rat, in vivo",≥ 28 days
same,PGG content of explanted aorta,"[3]; rat, in vivo, 0 days",1.8±0.6 μg PGG/mg dry tissue
same,PGG content of explanted aorta,"[3]; rat, in vivo, 28 days",1.2±0.4 μg PGG/mg dry tissue
same,aortas that maintained the same diameter or decreased at 56 days compared with 28 days,[4],100%
"O=C(OC[C@H]1O[C@@H](OC(=O)c2cc(O)c(O)c(OC(=O)c3cc(O)c(O)c(O)c3)c2)[C@H](OC(=O)c2cc(O)c(O)c(OC(=O)c3cc(O)c(O)c(O)c3)c2)[C@@H](OC(=O)c2cc(O)c(O)c(OC(=O)c3cc(O)c(O)c(O)c3)c2)[C@@H]1OC(=O)c1cc(O)c(O)c(OC(=O)c2cc(O)c(O)c(O)c2)c1)c1cc(O)c(O)c(OC(=O)c2cc(O)c(O)c(O)c2)c1 [TA, tannic acid]",resistance of aorta to elastase (digestion values vs untreated fresh aorta),[5],dramatically increased resistance
same,TA binding kinetics normalized to dry weight of pure elastin strips,[6],rapid uptake
same,"increase in stability towards enzymatic digestion, evaluated by mass loss","[7]; 0.3% TA pretreatment, elastase, n=6",about 50%
same,histology of aortic elastin structure after elastase treatment,"[7]; TA-stabilized elastin, elastase for up to 48 hours",remarkably preserved
